{"source": "patent US20040087612A1", "about": "“Method of increasing lacrimal gland tearing by topical administration of tacrolimus” (priority 2002, published 2004)", "test_system": "dogs with naturally occurring keratoconjunctivitis sicca", "assay": "Schirmer tear quantification in dogs treated topically with tacrolimus suspension", "format": "in vivo, dog", "conditions": "topical administration to the eye", "from_the_text": "In the present invention, tacrolimus is typically administered topically as an aqueous ophthalmic suspension that can be in the form of drops or an ointment. While the particular mixture and efficacious concentration of tacrolimus can be varied, one such suspension used in the treatment of a number of dogs included the following: i) Approximately 0.02 percent weight/volume tacrolimus crystals, ii) Approximately 0.2 percent weight/volume hydroxypropyl methylcellulose, iii) Approximately 0.4 percent weight/volume lactose, and iv) Sterile, deionized water mixed with the first three ingredients in an amount sufficient to achieve the above-noted concentrations. The following examples illustrate the effectiveness of the treatment method of the present invention. Specifically, eleven different dogs of varying breeds and ages were treated using the above solution for treatment periods ranging from 20-84 days. The eleven dogs had naturally occurring keratoconjunctivitis sicca. The subject dogs received one drop of the above-described tacrolimus-based suspension topically in the eye, twice a day. Prior to therapy, tear production was measured using standard Schirmer tear quantification. Corneal fibrosis, vascularization and pigmentation were measured using slit lamp biomicroscopy and fundus reflection during indirect ophthalmoscopy. […]"}
{"smiles": "C=CC[C@@H]1/C=C(\\C)C[C@H](C)C[C@H](OC)[C@H]2O[C@@](O)(C(=O)C(=O)N3CCCC[C@H]3C(=O)O[C@H](/C(C)=C/[C@@H]3CC[C@@H](O)[C@H](OC)C3)[C@H](C)[C@@H](O)CC1=O)[C@H](C)C[C@@H]2OC", "note": "[tacrolimus, Tacrolimus]", "values": [{"measurement": "effect on lacrimal gland tearing", "result": "increases lacrimal gland tearing"}]}
